Counter-ions that a name gives are not always drawn.
Tests used:
[1] = molecular target: T1, sRAGE (ligand Carboxymethyl Lysine (CML)) (Homo sapiens, UniProt Q15109); test: ELISA assay: inhibition of sRAGE binding to plate-bound CML; conditions: sRAGE binding to immobilised CML; concentration at which 50% signal has been inhibited
T1 construct: extracellular domain can be isolated by proteolysis of RAGE to generate soluble RAGE (sRAGE) comprised of the V and C domains
Description: (§1) S100b, β-amyloid and CML (500 ng/100 μL/well) in 100 mM sodium bicarbonate/sodium carbonate buffer (pH 9.8) is loaded onto the wells of a NUNC Maxisorp flat bottom 96-well microtitre plate. The plate is incubated at 4° C. overnight. The wells are aspirated and treated with 50 mM imidazole buffer saline (pH 7.2) (with 1 mM CaCl2/MgCl2) containing 1% bovine serum albumin (BSA) (300 μL/well) for two h at 37° C.
(§2) Test compounds are dissolved in nanopure water (concentration: 10-100 μM). DMSO may be used as co-solvent. 25 μL of test compound solution in 2% DMSO is added, along with 75 μL sRAGE (4.0×10^−4 mg/mL FAC) to each well and samples are incubated for 1 h at 37° C. The wells are washed 3 times with 155 mM NaCl pH 7.2 buffer saline and are soaked 10 seconds between each wash.
(§3) Non-radioactive binding is performed by adding:
(§4) 10 μL Biotinylated goat F(ab′)2 Anti-mouse IgG. (8.0×10^−4 mg/mL, FAC)
(§5) 10 μL Alkaline phosphatase Streptavidin (3×10^−3 mg/mL FAC)
(§6) 10 μL Polyclonal antibody for sRAGE (FAC 6.0×10^−3 mg/mL)
(§7) to 5 mL 50 mM imidazole buffer saline (pH 7.2) containing 0.2% bovine serum albumin and 1 mM CaCl2. The mixture is incubated for 30 minutes at 37° C. 100 μL complex is added to each well and incubation is allowed to proceed at rt for 1 h. Wells are washed 3 times with wash buffer and soaked 10 s between each wash. 100 μL 1 mg/mL (pNPP) in 1 M diethanolamine (pH adjusted to 9.8 with HCl) is added. Color is allowed to develop in the dark for 1 to 2 h at rt. The reaction is quenched with 10 μL of stop solution (0.5 N NaOH in 50% ethanol) and the absorbance is measured spectrophotometrically with a microplate reader at 405 nm.

sRAGE (ligand S-100b) = molecular target: T2, sRAGE (ligand S-100b) (Homo sapiens, UniProt Q15109); test: ELISA assay: inhibition of sRAGE binding to plate-bound S100b; conditions: sRAGE binding to immobilised S100b; concentration at which 50% signal has been inhibited
T2 construct: extracellular domain can be isolated by proteolysis of RAGE to generate soluble RAGE (sRAGE) comprised of the V and C domains
Description: as §1, §2, §3, §4, §5, §6, §7

sRAGE (ligand Amyloid-β) = molecular target: T3, sRAGE (ligand Amyloid-β) (Homo sapiens, UniProt Q15109); test: ELISA assay: inhibition of sRAGE binding to plate-bound β-amyloid; conditions: sRAGE binding to immobilised β-amyloid; concentration at which 50% signal has been inhibited
T3 construct: extracellular domain can be isolated by proteolysis of RAGE to generate soluble RAGE (sRAGE) comprised of the V and C domains
Description: as §1, §2, §3, §4, §5, §6, §7

T2 sequence (Q15109 23-342 limits assumed): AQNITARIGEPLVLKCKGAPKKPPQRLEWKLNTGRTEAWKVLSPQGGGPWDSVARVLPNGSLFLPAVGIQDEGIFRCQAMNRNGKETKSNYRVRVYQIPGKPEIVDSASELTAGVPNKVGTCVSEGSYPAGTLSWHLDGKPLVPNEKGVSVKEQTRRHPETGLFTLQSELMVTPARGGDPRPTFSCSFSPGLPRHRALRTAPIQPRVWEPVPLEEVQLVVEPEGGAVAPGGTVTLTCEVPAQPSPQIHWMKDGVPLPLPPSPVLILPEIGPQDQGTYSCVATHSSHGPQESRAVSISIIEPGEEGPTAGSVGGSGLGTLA
T3 sequence (Q15109 23-342 limits assumed): as above
T1 sequence (Q15109 23-342 limits assumed): as above

| SMILES | IC50 [1] [µM] | IC50 (sRAGE (ligand S-100b)) [µM] | IC50 (sRAGE (ligand Amyloid-β)) [µM] |
| --- | --- | --- | --- |
| CCCCn1c([C@@H](Cc2ccc(OCc3ccccc3)cc2)NC(=O)OC(C)(C)C)nc2ccc(OCCCN(CC)CC)cc21 [Example 1, 2-[(1R)-2-(4-Benzyloxyphenyl)-1-tert-butoxycarbonylamino-1-ethyl]-3-butyl-5-(3-diethylamino-1-propoxy)benzimidazole] | 0.5 to 1 | 1 to 5 | 1 to 5 |
| CCCCn1c([C@H](N)Cc2ccc(OCc3ccccc3)cc2)nc2ccc(OCCCN(CC)CC)cc21 [Example 2, 2-[(1R)-2-(4-Benzyloxyphenyl)-1-amino-1-ethyl]-3-butyl-5-(3-diethylamino-1-propoxy)benzimidazoleTrihydrochloride] | 1 to 5 | 1 to 5 | 1 to 5 |
| CCCCn1c([C@@H](Cc2ccc(OCc3ccccc3)cc2)NC(=O)OC(C)(C)C)nc2cc(OCCCN(CC)CC)ccc21 [Example 3, 2-[(1R)-2-(4-Benzyloxyphenyl)-1-tert-butoxycarbonylamino-1-ethyl]-3-butyl-6-(3-diethylamino-1-propoxy)benzimidazole] | 1 to 5 | 1 to 5 | 1 to 5 |
| CCCCn1c([C@H](N)Cc2ccc(OCc3ccccc3)cc2)nc2cc(OCCCN(CC)CC)ccc21 [Example 4, 2-[(1R)-2-(4-Benzyloxyphenyl)-1-amino-1-ethyl]-3-butyl-6-(3-diethylamino-1-propoxy)benzimidazole] | 1 to 5 | 1 to 5 | 1 to 5 |
| CCN(CC)CCCOc1ccc2[nH]c([C@@H](Cc3ccc(OCc4ccccc4)cc3)NC(=O)OC(C)(C)C)nc2c1 [Example 5, 2-[(1R)-2-(4-Benzyloxyphenyl)-1-tert-butoxycarbonylamino-1-ethyl]-6-(3-diethylamino-1-propoxy)benzimidazole] | 5 to 10 | 10 to 20 |  |
| CCN(CC)CCCOc1ccc2[nH]c([C@H](N)Cc3ccc(OCc4ccccc4)cc3)nc2c1 [Example 6, 2-[(1R)-2-(4-Benzyloxyphenyl)-1-amino-1-ethyl]-6-(3-diethylamino-1-propoxy)benzimidazole] | 1 to 5 | 5 to 10 | 5 to 10 |
| CCCCn1c(C(Cc2cccc(OCc3ccccc3)c2)NC(=O)OC(C)(C)C)nc2ccc(OCCCN(CC)CC)cc21 (centres unmarked) [Example 7, 2-[2-(3-Benzyloxyphenyl)-1-(tert-butoxycarbonylamino)-1-ethyl]-3-butyl-5-(3-diethylamino-1-propoxy)benzimidazole] | 1 to 5 | 1 to 5 | 1 to 5 |
| CCCCn1c([C@@H](Cc2ccc(OCC)cc2)NC(=O)OC(C)(C)C)nc2ccc(OCCCN(CC)CC)cc21 [Example 8, 2-[(1R)-2-(4-Ethoxyphenyl)-1-(tert-butoxycarbonylamino)-1-ethyl]-3-butyl-5-(3-diethylamino-1-propoxy)benzimidazole] | 1 to 5 | 5 to 10 | 5 to 10 |
| CCCCn1c([C@@H](Cc2ccc(OCCc3ccc(Cl)cc3)cc2)NC(=O)OC(C)(C)C)nc2ccc(OCCCN(CC)CC)cc21 [Example 9] | 0.5 to 1 | 0.5 to 1 | 0.5 to 1 |
| CCN(CC)CCCOc1ccc2nc([C@@H](Cc3ccc(OCc4ccccc4)cc3)NC(=O)OC(C)(C)C)n(CCCN(CC)CC)c2c1 [Example 10, 2-[(1R)-2-(4-Benzyloxyphenyl)-1-(tert-butoxycarbonylamino)-1-ethyl]-3-(3-diethylamino-1-propyl)-5-(3-diethylamino-1-propoxy)benzimidazole] | 1 to 5 | 1 to 5 | 5 to 10 |
| CCN(CC)CCCOc1ccc2nc([C@@H](Cc3ccc(OCc4ccccc4)cc3)NC(=O)OC(C)(C)C)n(CC)c2c1 [Example 11, 2-[(1R)-2-(4-Benzyloxyphenyl)-1-(tert-butoxycarbonylamino)-1-ethyl]-3-ethyl-5-(3-diethylamino-1-propoxy)benzimidazole] | 1 to 5 | 1 to 5 | 1 to 5 |
| CCN(CC)CCCOc1ccc2nc([C@H](N)Cc3ccc(OCc4ccccc4)cc3)n(CCCN(CC)CC)c2c1 [Example 12, 2-[(1R)-2-(4-Benzyloxyphenyl)-1-amino-1-ethyl]-3-(3-diethylamino-1-propyl)-5-(3-diethylamino-1-propoxy)benzimidazole] | 1 to 5 | 1 to 5 | 1 to 5 |
| CCN(CC)CCCOc1ccc2nc([C@@H](Cc3ccc(OCc4ccccc4)cc3)NC(=O)OC(C)(C)C)n(Cc3ccccc3)c2c1 [Example 13, 2-[(1R)-2-(4-Benzyloxyphenyl)-1-(tert-butoxycarbonylamino)-1-ethyl]-3-benzyl-5-(3-diethylamino-1-propoxy)benzimidazole] | 5 to 10 | 5 to 10 | 5 to 10 |
| CCN(CC)CCCOc1ccc2nc([C@H](N)Cc3ccc(OCc4ccccc4)cc3)n(Cc3ccccc3)c2c1 [Example 14, 2-[(1R)-2-(4-Benzyloxyphenyl)-1-amino-1-ethyl]-3-benzyl-5-(3-diethylamino-1-propoxy)benzimidazole] | 5 to 10 | 5 to 10 | 10 to 20 |
| CCCn1c([C@@H](Cc2ccc(OCc3ccccc3)cc2)NC(=O)OC(C)(C)C)nc2ccc(OCCCN(CC)CC)cc21 [Example 15, 2-[(1R)-2-(4-Benzyloxyphenyl)-1-(tert-butoxycarbonylamino)-1-ethyl]-3-propyl-5-(3-diethylamino-1-propoxy)benzimidazole] | 5 to 10 | 5 to 10 | 5 to 10 |
| CCCn1c([C@H](N)Cc2ccc(OCc3ccccc3)cc2)nc2ccc(OCCCN(CC)CC)cc21 [Example 16, 2-[(1R)-2-(4-Benzyloxyphenyl)-1-amino-1-ethyl]-3-propyl-5-(3-diethylamino-1-propoxy)benzimidazole] | 10 to 20 | 5 to 10 | 10 to 20 |
